This is an account of results in patent publication US5565433A, “Sulfated β-glycolipid derivatives as cell adhesion inhibitors” (Bristol-Myers Squibb Company, priority 1996, dated 1996).

Each structure is given as a SMILES string.

For experiment [1], the target named is T1, P-selectin (Homo sapiens, UniProt P16109).
T1 construct: consists of the human lectin domain, the EGF domain, and two complement repeats of the human selectins; made in house
Put plainly: P-Selectin Adhesion Receptor Binding: cell-free ELISA, inhibition of P-selectin binding to immobilized sulfatides. Conditions: immobilized sulfatide, pH 8.0. From the text:
1. P-Selectin Adhesion Receptor Binding
P-selectin (GMP140, granule membrane protein-140, PADGEM, or CD62) is a calcium-dependent transmembrane protein found in alpha granules of endothelial cells and platelets. It is an inducible selectin produced on activated endothelium and platelets which recognize alpha(2-3)sialylated and alpha(1-3)fucosylated lactosaminoglycans which include the sequence, Lewis x (Zhou et al., J. Cell. Biol., (1991) 115 (2): 557-564) and sulfatides (3-sulfated galactosyl ceramides, Aruffo, et al., Cell (1991) 67: 35-44). P-selectin may be responsible for the initial adhesion events between endothelium and neutrophils as evidenced by leukocyte rolling induced by P-selectin in flow cells (Lawrence, M., and T. Springer, Cell (1991) 65: 859-873).
Based on the availability of soluble forms of P-selectin prepared as described by Aruffo, A., et al., Cell, 67, 35-44 (1991), a binding ELISA based assay modified from Foxall, et al., J., Cell Biol., 117, 895-902 (1992) was developed to measure inhibitors of P-selectin binding to immobilized sulfatides. Such inhibitors were tested in the assay described below.
0.1 ml of sulfatide (SIGMA) or lysosulfatide (SIGMA) each at 1 μg/ml in MeOH were added to the wells of a 96-well ELISA plate (ProBind, Falcon) and allowed to dry overnight at room temperature. The next day the antigen coated plates were blocked for 1.5 hours at room temperature with 5% BSA (ICN) in buffer containing 20mM Hepes and 0.15 M NaCl, pH 8.0. Wild type P-selectin and mutants thereof were first mixed with HRP-conjugated goat anti-human IgG (Fisher Scientific), serially diluted and then incubated for 30 minutes at 37° C. in buffer containing 20 mM Hepes, 0.15 M NaCl, 1% BSA and 0.8 mM CaCl2, pH 8.0 prior to addition to the BSA blocked plates. Following the 30 minute preincubation, the fusion protein-HRP conjugate immunocomplexes were incubated on the blocked antigen coated plates for 45 minutes at 37° C. in the presence or absence of the test compounds and then washed to remove any unbound proteins. Bound complexes were detected by addition of substrate buffer (95 mM NaOAc.3H2 O, 5 mM citric acid monohydrate, 1.4 mM urea/H2O2) containing 3, 3', 5, 5' Tetramethylbenzidine (SIGMA). Reactions were stopped by the addition of 3N sulfuric acid and the absorbance read on an ELISA reader at dual wavelengths 450 and 630 nm. The efficacy of these compounds was compared to that of sulfatide (positive control) or to lysosulfatide (negative control). The data is obtained as percent inhibition of specific binding [formula] and a plot of dose vs. percent inhibition of Rg binding is generated in which IC50 (μM) is calculated and reported as cell free data in Table 1.

Experiment [2] deals with Reverse Passive Arthus Reaction in Rats. Put plainly: Reverse Passive Arthus Reaction in Rats, vascular permeability (VP). In kind it is in vivo. Conditions: rat, IV, % inhibition at 3 mg single dose, 4 hours. From the text: 3. Reverse Passive Arthus Reaction in Rats
The reverse passive Arthus reaction in rats is a modification of the method by Mulligan et al., as described in J. Clin. Invest., (1991 ) 88:1396-1406. This is an experimental model in which the interaction of antigen-antibody complexes and complement leads to a severe vasculitis that is associated with edema, induration, erythema and hemorrhage. The interaction between the antigen-antibody complexes and complement leads to a localized influx of neutrophils. These neutrophils release a variety of mediators that are associated with tissue damage and vascular permeability. The localized inflammatory reaction is measured using different techniques i.e., vascular permeability and neutrophil influx which is evaluated both biochemically and microscopically.
Male Sprague Dawley specific pathogen-free rats with jugular vein cannulae (280-320 g, Hill Top Labs, Pa.) are used in these studies. Animals are acclimated for at least 1 day and individually housed in stainless steel cages. The dorsal region of the rats is closely clipped 2 days prior to the experiments and divided into 4 sites on each side of the midline. Prior to all injections the rats are sedated with 0.4 ml per 300 gm rat of ketamine/rompun [1000 mg (10 ml) of ketamine HCL is mixed with 40 mg (2.0 ml) Rompun] administered IP and or inhalation anesthesia with metafane (methoxyflurane).
Bovin Serum Albumin (BSA) and rabbit polyclonal IgG rich in anti-BSA are purchased from Sigma Chemical Co. (St. Louis, Mo.). Radiolabelled ^125 I-BSA (spAct 1-5 μCi/μg) is purchased from Dupont NEN (Boston, Mass.).
Each rat is administered intradermal (ID) injection of (0.4 mg, 0.6 mg and 0.8 mg) anti-BSA in a volume of 100 μl per injection in normal saline. The ID injections are randomized near the mid dorsal region on both sides of the back bone. Immediately after the ID injections of the anti-BSA, the rats are administered intravenous (IV) injections of BSA (10 mg in 1.0 ml) in normal saline containing ^125 I labeled BSA (1 μCi/ml BSA or 5.0 μCi/kg body wt) for quantification of dermal vascular injury. Anti-inflammatory agents such as inhibitors of adhesion molecules of the present invention are administered IV at a single dose of 3 mg immediately after BSA. Four (4) hours after the IV injection of BSA, the rats are anesthetized with metafane and 2 to 3 ml of blood is withdrawn via the cannula into an anticoagulant containing (EDTA or Heparin) tube and plasma separated and saved for neutrophil and albumin quantitation. The rats are killed and the skin surrounding the injection site (15 mm diameter) is punched out and weighed. The skin samples and a fixed volume of plasma (0.1 to 1.0 ml) is analyzed in a gamma-counter for ^125 I content. Skin samples from the contralateral side are processed and analyzed for myeloperoxidase activity (MPO) as a measure of neutrophil accumulation. As needed, samples are also processed for histological evaluation of the reacted sites.
Vascular Permeability (VP)
The calculation of the plasma protein exudation into skin is made by determining the radioactivity in the tissue and relating this to the level of radioactive albumin in the blood at the time of sacrifice. […] [formula]
Percent inhibition of the test compound at 3 mg was determined as follows: [formula] Myeloperoxidase (MPO)

T1 sequence (P16109 with tags, fused parts or gaps limits assumed): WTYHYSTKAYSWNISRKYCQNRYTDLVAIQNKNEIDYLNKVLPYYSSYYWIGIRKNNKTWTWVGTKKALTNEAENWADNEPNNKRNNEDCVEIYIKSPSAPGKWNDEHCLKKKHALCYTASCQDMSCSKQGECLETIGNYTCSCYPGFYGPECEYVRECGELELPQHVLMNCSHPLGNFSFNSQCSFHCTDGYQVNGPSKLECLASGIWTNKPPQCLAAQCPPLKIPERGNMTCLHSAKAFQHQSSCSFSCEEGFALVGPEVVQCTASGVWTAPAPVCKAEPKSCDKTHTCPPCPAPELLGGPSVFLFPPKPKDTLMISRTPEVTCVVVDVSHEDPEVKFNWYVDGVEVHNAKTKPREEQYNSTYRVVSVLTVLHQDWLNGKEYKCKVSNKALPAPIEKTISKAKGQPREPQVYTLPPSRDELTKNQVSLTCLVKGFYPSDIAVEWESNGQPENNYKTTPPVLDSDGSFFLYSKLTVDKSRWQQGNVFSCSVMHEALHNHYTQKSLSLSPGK

With `CCCCCCCCCCCCC/C=C/[C@@H](O)[C@H](CO[C@@H]1O[C@H](COS(=O)(=O)O)[C@H](OS(=O)(=O)O)[C@H](O)[C@H]1O)NC(=O)CCCCCCCCCCCCCCC` [Example 2, (2S,3R,4E)-3-Hydroxy-2-hexadecanoylamino-1-[4,6-di-O-(sodiumoxysulfonyl)-β-D-galactopyranosyloxy]-4-octadecene], the IC50 (in general, the concentration needed to halve the response being measured) in experiment [1] came out at 1700 nM. Also, the “RPA VP % Inhib.” value in experiment [2] was determined as 63%.
Molecule `CCCCCCCC/C=C\CCCCCCCCCCCCCC(=O)N[C@@H](CO[C@@H]1O[C@H](COS(=O)(=O)O)[C@H](OC(=O)c2ccccc2)[C@H](OC(=O)c2ccccc2)[C@H]1OS(=O)(=O)O)[C@@H](/C=C/CCCCCCCCCCCCC)OC(=O)c1ccccc1` [Example 7, (2S,3R,4E)-3-Benzoyloxy-1-[3,4-di-O-benzoyl-2,6-di-O-(sodiumoxysulfonyl)-β-D-galactopyranosyloxy]-2-(cis-15-tetracosenoylamino)-4-octadecene] showed an IC50 in experiment [1] of 1000 nM. The “RPA VP % Inhib.” value in experiment [2] stood at 56%.
